According to PubChem BioAssay (NCI):
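48-hour exposure; five concentrations; linearly interpolated endpoints. Abbreviation: GI50, concentration required for 50% inhibition of growth. TGI is the concentration that stops growth completely.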

Legend:
Assay in all cases: growth of human tumour cells (NCI), 48 h
[1] = tested on: DU-145 prostate
[2] = tested on: HT29 colon
[3] = tested on: OVCAR-5 ovarian
[4] = tested on: PC-3 prostate
[5] = tested on: NCI-H226 lung
[6] = tested on: HOP-62 NSCLC
[7] = tested on: SNB-19 CNS
[8] = tested on: HOP-92 NSCLC
[9] = tested on: MDA-MB-231 breast
[10] = tested on: CAKI-1 renal
[11] = tested on: A549 NSCLC
[12] = tested on: K-562 leukemia
[13] = tested on: TK-10 renal
[14] = tested on: LOX IMVI melanoma
[15] = tested on: U251 CNS
[16] = tested on: BT-549 breast
[17] = tested on: COLO 205 colon
[18] = tested on: NCI-H522 lung
[19] = tested on: UO-31 renal
[20] = tested on: IGROV1 ovarian
[21] = tested on: OVCAR-8 ovarian
[22] = tested on: OVCAR-3 ovarian
[23] = tested on: ACHN renal
[24] = tested on: SK-MEL-5 melanoma
[25] = tested on: CCRF-CEM leukemia
[26] = tested on: NCI-H23 lung
[27] = tested on: SF-295 CNS
[28] = tested on: MCF7 breast
[29] = tested on: MALME-3M melanoma
[30] = tested on: HCT-116 colon
[31] = tested on: SF-268 CNS
[32] = tested on: MDA-MB-468 breast
[33] = tested on: RPMI-8226 leukemia
[34] = tested on: SK-MEL-2 melanoma
[35] = tested on: OVCAR-4 ovarian
[36] = tested on: SN12C renal
[37] = tested on: HCT-15 colon
[38] = tested on: KM12 colon
[39] = tested on: MDA-MB-435
[40] = tested on: UACC-62 melanoma
[41] = tested on: HCC-2998 colon
[42] = tested on: EKVX NSCLC
[43] = tested on: A498 renal
[44] = tested on: SF-539 CNS
[45] = tested on: SK-OV-3 ovarian
[46] = tested on: SNB-75 CNS
[47] = tested on: SW-620 colon
[48] = tested on: HS 578T breast
[49] = tested on: T-47D breast
[50] = tested on: SK-MEL-28 melanoma
[51] = tested on: NCI/ADR-RES ovarian
[52] = tested on: MOLT-4 leukemia
[53] = tested on: UACC-257 melanoma
[54] = tested on: SR leukemia
[55] = tested on: HL-60(TB) leukemia
[56] = tested on: NCI-H460 lung
[57] = tested on: 786-0 renal
[58] = tested on: RXF 393 renal
[59] = tested on: M14 melanoma

For O=C(NO)c1ccc(Cn2ccc3c(NCc4ccccc4)ncnc32)cc1, the GI50 [1] was 4.06 µM, the TGI [1] was greater than 103 µM and the GI50 [2] was 2.48 µM. The TGI [2] was 6.93 µM, the GI50 [3] was 2.57 µM and the TGI [3] was 10.1 µM. For the same compound, the GI50 [4] was 4.35 µM, the TGI [4] was 97.9 µM and the GI50 [5] was 4.17 µM. The TGI [5] was 25.5 µM, the GI50 [6] was 4.13 µM and the TGI [6] was 20.9 µM. The GI50 [7] was 5.81 µM, the TGI [7] was 20.6 µM and the GI50 [8] was 4.07 µM. It also gave a TGI [8] of 18.5 µM, a GI50 [9] of 5.2 µM and a TGI [9] of 22 µM. It also gave a GI50 [10] of 3.21 µM, a TGI [10] of 15.2 µM and a GI50 [11] of 4.34 µM. For the same compound, the TGI [11] was 20.6 µM, the GI50 [12] was 2.03 µM and the TGI [12] was greater than 103 µM. The GI50 [13] was 3.2 µM, the TGI [13] was 17.8 µM and the GI50 [14] was 4.2 µM. It also gave a TGI [14] of 16.1 µM, a GI50 [15] of 3.21 µM and a TGI [15] of 15.2 µM. For the same compound, the GI50 [16] was 13.7 µM, the TGI [16] was 31.7 µM and the GI50 [17] was 2.43 µM. The TGI [17] was 6.24 µM, the GI50 [18] was 1.93 µM and the TGI [18] was 7.69 µM. The GI50 [19] was 3.93 µM, the TGI [19] was 16.6 µM and the GI50 [20] was 4.14 µM. For the same compound, the TGI [20] was 14.7 µM, the GI50 [21] was 3.1 µM and the TGI [21] was 14.4 µM. The GI50 [22] was 2.17 µM, the TGI [22] was 5.23 µM and the GI50 [23] was 4.07 µM. For the same compound, the TGI [23] was 15.2 µM, the GI50 [24] was 1.9 µM and the TGI [24] was 6.37 µM. The GI50 [25] was 3.72 µM, the TGI [25] was 58.7 µM and the GI50 [26] was 4.8 µM. For the same compound, the TGI [26] was 17.2 µM, the GI50 [27] was 3.49 µM and the TGI [27] was 12.7 µM. For the same compound, the GI50 [28] was 3.25 µM, the TGI [28] was 22.8 µM and the GI50 [29] was 1.99 µM. The TGI [29] was 9.52 µM, the GI50 [30] was 3.4 µM and the TGI [30] was 24.9 µM. The GI50 [31] was 8.8 µM, the TGI [31] was 36.5 µM and the GI50 [32] was 2.12 µM. The TGI [32] was 6.05 µM, the GI50 [33] was 2.9 µM and the TGI [33] was greater than 103 µM. It also gave a GI50 [34] of 4.58 µM, a TGI [34] of 18.7 µM and a GI50 [35] of 12.2 µM. It also gave a TGI [35] of 96.2 µM, a GI50 [36] of 4.41 µM and a TGI [36] of 17.3 µM. For the same compound, the GI50 [37] was 3.09 µM, the TGI [37] was 15.2 µM and the GI50 [38] was 3.19 µM. It also gave a TGI [38] of 12.7 µM, a GI50 [39] of 0.562 µM and a TGI [39] of 2.26 µM. The GI50 [40] was 2.39 µM, the TGI [40] was 12.2 µM and the GI50 [41] was 4.5 µM. For the same compound, the TGI [41] was 17.1 µM, the GI50 [42] was 5.93 µM and the TGI [42] was 19.8 µM. It also gave a GI50 [43] of 2.28 µM, a TGI [43] of 10.2 µM and a GI50 [44] of 2.64 µM. The TGI [44] was 9.8 µM, the GI50 [45] was 3.27 µM and the TGI [45] was 15.6 µM. The GI50 [46] was 1.25 µM, the TGI [46] was 5.36 µM and the GI50 [47] was 2.22 µM. The TGI [47] was 6.49 µM, the GI50 [48] was 2.27 µM and the TGI [48] was 7.62 µM. It also gave a GI50 [49] of 3.13 µM, a TGI [49] of 21.8 µM and a GI50 [50] of 3.77 µM. The TGI [50] was 17.5 µM, the GI50 [51] was 2.6 µM and the TGI [51] was 12.7 µM. It also gave a GI50 [52] of 2.41 µM, a TGI [52] of 10.3 µM and a GI50 [53] of 2.39 µM. For the same compound, the TGI [53] was 15.1 µM, the GI50 [54] was 0.937 µM and the TGI [54] was greater than 103 µM. For the same compound, the GI50 [55] was 2.34 µM, the TGI [55] was 6.38 µM and the GI50 [56] was 3.12 µM. It also gave a TGI [56] of 19.1 µM, a GI50 [57] of 8.63 µM and a TGI [57] of 26.6 µM. For the same compound, the GI50 [58] was 1.94 µM, the TGI [58] was 5.63 µM and the GI50 [59] was 4.12 µM. For the same compound, the TGI [59] was 20.2 µM.
